{
  "source": "patent US20210155670A1",
  "about": "“SYSTEMS AND METHODS FOR THE PREPARATION OF PEPTIDE-MHC-I COMPLEXES WITH NATIVE GLYCAN MODIFICATIONS” (The Regents of the University of California, priority 2019, published 2021)",
  "key": {"[1]": {"target": "T1, HLA-A*24:02/TAPBPR complex (Homo sapiens, UniProt P04439+P61769, D101N/D140Y/E190D/F33S/G103R/G107R/I119L/I121M/L105A/N151K/N90K/Q86E/Q94H/R106L/R138H/R89G/T104I/V100E/W191G/Y123F)", "T1 construct": "human beta-2 microglobulin signal peptide (N); TEV protease site (C, cleaved yes); FOS leucine zipper (C, cleaved yes); made in house; host or cells: CHO cells", "assay": "Native gel electrophoresis of HLA-A*24:02/TAPBPR complex with peptides", "format": "binding", "details": "FIG. 14c"}, "[2]": {"target": "T2, HLA-A*02:01/TAPBPR complex (Homo sapiens, UniProt P04439+P61769, D140Y/D185E/D98H/E176V/E277Q/G131W/G231S/I119V/I121R/I166T/I218V/N151K/N90K/P208A/P217A/Q86G/Q94H/R138H/R169H)", "T2 construct": "human beta-2 microglobulin signal peptide (N); TEV protease site (C, cleaved yes); FOS leucine zipper (C, cleaved yes); made in house; host or cells: CHO cells (CHO-K1s / CHO-K1s C1s-/-), co-transfected, secreted", "assay": "Native gel shift assay of peptide binding to HLA-A*02:01/TAPBPR complex"}, "[3]": {"target": "T3, HLA-A*68:02/TAPBPR complex (Homo sapiens, UniProt P04439+P61769, A269V/D140Y/D185E/E176V/E277Q/E87N/F33Y/G231S/I121R/I166T/I218V/L180W/N151K/P208A/P217A/Q86R/R138H/R169H/R297K/S129P/V36M)", "T3 construct": "human beta-2 microglobulin signal peptide (N); TEV protease site (C, cleaved yes); FOS leucine zipper (C, cleaved yes); made in house; host or cells: CHO cells", "assay": "Native gel shift assay of peptide binding to HLA-A*68:02/TAPBPR complex", "details": "Example 2, 10-molar excess of peptide", "description": "CHO-derived HLA-A*02:01/TAPBPR complexes can be loaded with high-affinity TAX9 and MART-1 peptides (FIG. 11D). […] The two alleles have considerable sequence homology in the peptide-binding groove formed by the α1/α2 domains, resulting in a shared preference for a Val, Leu, Ala or Ile at the peptide anchor position 9, but marked variation at anchor position 2 where HLA-A*02:01 has a preference for Leu while HLA-A*68:02 prefers Thr (FIG. 11A). […] Structure-based modeling (Nerli and Sgourakis, bioRxiv, 2020.03.23.004176 (2020)) confirmed A-pocket hydrogen bonding interactions between peptide anchor position L2 with the K66 sidechain, Y7 with Y99 from HLA-A*02:01, and anchor position T2 with N66 and N63 from HLA-A*68:02 (FIG. 11B). According to the electrophoretic mobility shift assay, all predicted high-affinity peptides bound to HLA-A*02:01 and HLA-A*68:02 resulting in discrete pMHC-I protein bands. (FIG. 11C).\nGels were imaged using an Innotech FluoChem2 system (Genetic Technologies Grover, Mo.)."}, "[4]": {"details": "Example 2, 10-fold molar excess of peptide, native gel"}},
  "note": "Entries after “also recorded” stand apart in the source; their conditions may differ. Where two headings read alike, the source gives them in different places. Ends that are not written are not given here.",
  "data": [
    {"sequence": "VYGFVRACL [PHOX2B]", "values": [
      {"measurement": "complex dissociation in the presence of peptide, native gel", "setting": "[1]", "result": "complex dissociation"}
    ]},
    {"sequence": "LLFGVPVYV [TAX9]", "values": [
      {"measurement": "native gel band shift of MHC-I (pMHC formation)", "setting": "[2]", "result": "resulted in a band shift"},
      {"measurement": "pMHC-I band formation in electrophoretic mobility shift assay", "setting": "[2]; [4]", "result": "formation of discrete bands corresponding to properly conformed pMHC species; also recorded: can be loaded; also recorded: pMHC-I formation"}
    ]},
    {"sequence": "RYPLTFGWCF [Nef138-10]", "values": [
      {"measurement": "complex dissociation in the presence of peptide, native gel", "setting": "[1]", "result": "complex dissociation"}
    ]},
    {"sequence": "YPNVNIHNF [NIH p29, non-specific (NS) negative control peptide]", "values": [
      {"measurement": "native gel band shift of MHC-I (pMHC formation)", "setting": "[2]; Example 1, SEC purified unzippered complex, 5:1 molar ratio, 1 h room temperature", "result": "did not"},
      {"measurement": "pMHC-I band formation in electrophoretic mobility shift assay", "setting": "[2]; [4]", "result": "non-binding"}
    ]},
    {"sequence": "WLMWLIINL", "values": [
      {"measurement": "pMHC-I band formation in electrophoretic mobility shift assay", "setting": "[2]; [4]", "result": "little or no binding"}
    ]},
    {"sequence": "TLACFVLAAV", "values": [
      {"measurement": "pMHC-I band formation in electrophoretic mobility shift assay", "setting": "[2]", "result": "little or no binding"}
    ]},
    {"sequence": "GLLGIGILTV [GM1]", "values": [
      {"measurement": "pMHC-I band formation in electrophoretic mobility shift assay", "setting": "[3]", "result": "significant binding"}
    ]},
    {"sequence": "RGPGRAFVFI [Peptide P18_I10]", "values": [
      {"measurement": "native gel band shift of MHC-I (pMHC formation)", "setting": "[2]", "result": "did not"},
      {"measurement": "pMHC-I band formation in electrophoretic mobility shift assay", "setting": "[2]; [4]", "result": "non-binding"}
    ]}
  ]
}
